Measured values as given in ChEMBL document CHEMBL3244013, “Central nervous system activity of a novel class of annelated 1,4-benzodiazepines, aminomethylene-2,4-dihydro-1H-imidazo[1,2-a][1,4]benzodiazepin-1-ones” (J Med Chem, 1977).

Key:
[1] = test system: Mus musculus; experiment: Antianxiety activity in po dosed CD-1 mouse assessed as inhibition of foot shock-induced aggression after 30 mins relative to control; assay type: functional; conditions: CD-1, po, 0.5 h
[2] = test system: Mus musculus; experiment: Anticonvulsant activity in po dosed CD-1 mouse assessed as protection against maximal electroshock-induced convulsion; assay type: functional; conditions: CD-1, po
[3] = test system: Mus musculus; experiment: Anticonvulsant activity in po dosed CD-1 mouse assessed as protection against pentylenetetrazole-induced convulsion; assay type: functional; conditions: CD-1, po
[4] = test system: Mus musculus; experiment: Anticonvulsant activity in po dosed CD-1 mouse assessed as protection against strychnine-induced convulsion after 30 mins; assay type: functional; conditions: CD-1, po, 0.5 h
[5] = test system: Mus musculus; experiment: Potentiation of hexobarbital-induced sedative effect in po dosed CD-1 mouse assessed as loss of righting reflex after 30 secs; assay type: functional; conditions: CD-1, po
[6] = test system: Mus musculus; experiment: Potentiation of chlorprothixene-induced sedative effect in po dosed CD-1 mouse assessed as loss of righting reflex; assay type: functional; conditions: CD-1, po
[7] = test system: Mus musculus; experiment: Induction of muscle relaxation in po dosed CD-1 mouse after 30 mins by rotary drum test; assay type: functional; conditions: CD-1, po, 0.5 h
[8] = test system: Mus musculus; experiment: Acute toxicity in po dosed CD-1 mouse assessed as mortality after 24 hrs; assay type: organism-based; conditions: in vivo

**Q.** With `CN(C)/C=C1\N=C2CN=C(c3ccccc3)c3cc(Cl)ccc3N2C1=O` as the compound, how does the ED50 [1] read?
**A.** 14 mg/kg

**Q.** And the ED50 [2]?
**A.** 42 mg/kg

**Q.** And the ED50 [3]?
**A.** 5 mg/kg

**Q.** And the ED50 [4]?
**A.** > 50 mg/kg

**Q.** What about the ED50 [5] of the same compound?
**A.** > 50 mg/kg

**Q.** And the ED50 [6]?
**A.** > 50 mg/kg

**Q.** And the ED50 [7]?
**A.** > 50 mg/kg

**Q.** What about the ED50 [8] of the same compound?
**A.** > 1000 mg/kg

**Q.** With `CCN/C=C1\N=C2CN=C(c3ccccc3Cl)c3cc(Cl)ccc3N2C1=O` as the compound, how does the ED50 [1] read?
**A.** 1 mg/kg

**Q.** What about the ED50 [2] of the same compound?
**A.** 18 mg/kg

**Q.** And the ED50 [3]?
**A.** 0.39 mg/kg

**Q.** What about the ED50 [4] of the same compound?
**A.** 25 mg/kg

**Q.** What about the ED50 [5] of the same compound?
**A.** 0.27 mg/kg

**Q.** And the ED50 [6]?
**A.** 9.6 mg/kg

**Q.** And the ED50 [7]?
**A.** 11.5 mg/kg

**Q.** And the ED50 [8]?
**A.** > 1000 mg/kg

**Q.** How did the ED50 [1] turn out when `CCCN/C=C1\N=C2CN=C(c3ccccc3Cl)c3cc(Cl)ccc3N2C1=O` was run?
**A.** 2.4 mg/kg

**Q.** And the ED50 [2]?
**A.** > 30 mg/kg

**Q.** And the ED50 [3]?
**A.** 1 mg/kg

**Q.** What about the ED50 [4] of the same compound?
**A.** > 25 mg/kg

**Q.** And the ED50 [5]?
**A.** 0.06 mg/kg

**Q.** And the ED50 [6]?
**A.** 5.6 mg/kg

**Q.** And the ED50 [7]?
**A.** 8 mg/kg

**Q.** What about the ED50 [8] of the same compound?
**A.** > 1000 mg/kg

**Q.** Which ED50 [1] does the source give for `O=C1/C(=C/N2CCOCC2)N=C2CN=C(c3ccccc3)c3cc(Cl)ccc3N12` here?
**A.** 2.4 mg/kg

**Q.** And the ED50 [2]?
**A.** 7 mg/kg

**Q.** What about the ED50 [3] of the same compound?
**A.** 2.3 mg/kg

**Q.** What about the ED50 [4] of the same compound?
**A.** > 50 mg/kg

**Q.** And the ED50 [5]?
**A.** > 50 mg/kg

**Q.** And the ED50 [6]?
**A.** 20.3 mg/kg

**Q.** And the ED50 [7]?
**A.** 29 mg/kg

**Q.** And the ED50 [8]?
**A.** > 1000 mg/kg

**Q.** Which results are given for `O=C1/C(=C/N2CCNCC2)N=C2CN=C(c3ccccc3)c3cc(Cl)ccc3N12`?
**A.** ED50 [1]: > 20 mg/kg; ED50 [2]: > 50 mg/kg; ED50 [3]: 1.95 mg/kg; ED50 [4]: > 50 mg/kg; ED50 [5]: 7.5 mg/kg; ED50 [6]: 23 mg/kg; ED50 [7]: > 50 mg/kg; ED50 [8]: > 1000 mg/kg

**Q.** `CN1CCN(/C=C2\N=C3CN=C(c4ccccc4)c4cc(Cl)ccc4N3C2=O)CC1` was tested. Which ED50 [1] did it give?
**A.** 2.65 mg/kg

**Q.** What about the ED50 [2] of the same compound?
**A.** 2.1 mg/kg

**Q.** And the ED50 [3]?
**A.** 0.9 mg/kg

**Q.** And the ED50 [4]?
**A.** 7.1 mg/kg

**Q.** What about the ED50 [5] of the same compound?
**A.** 4.9 mg/kg

**Q.** And the ED50 [6]?
**A.** 4.6 mg/kg

**Q.** What about the ED50 [7] of the same compound?
**A.** 4.2 mg/kg

**Q.** And the ED50 [8]?
**A.** > 1000 mg/kg

**Q.** `CCN1CCN(/C=C2\N=C3CN=C(c4ccccc4)c4cc(Cl)ccc4N3C2=O)CC1` was tested. Which ED50 [1] did it give?
**A.** 0.94 mg/kg

**Q.** What about the ED50 [2] of the same compound?
**A.** 2.2 mg/kg

**Q.** What about the ED50 [3] of the same compound?
**A.** 0.48 mg/kg

**Q.** What about the ED50 [4] of the same compound?
**A.** 5.5 mg/kg

**Q.** What about the ED50 [5] of the same compound?
**A.** 1.1 mg/kg

**Q.** What about the ED50 [6] of the same compound?
**A.** 5 mg/kg

**Q.** What about the ED50 [7] of the same compound?
**A.** 1.6 mg/kg

**Q.** And the ED50 [8]?
**A.** > 1000 mg/kg

**Q.** How did the ED50 [1] turn out when `CCCN1CCN(/C=C2\N=C3CN=C(c4ccccc4)c4cc(Cl)ccc4N3C2=O)CC1` was run?
**A.** 1.3 mg/kg

**Q.** And the ED50 [2]?
**A.** 2.7 mg/kg

**Q.** And the ED50 [3]?
**A.** 1 mg/kg

**Q.** And the ED50 [4]?
**A.** 6.4 mg/kg

**Q.** What about the ED50 [5] of the same compound?
**A.** 3.6 mg/kg

**Q.** And the ED50 [6]?
**A.** 3.2 mg/kg

**Q.** What about the ED50 [7] of the same compound?
**A.** 1.1 mg/kg

**Q.** And the ED50 [8]?
**A.** > 1000 mg/kg

**Q.** Which results are given for `CCCCN1CCN(/C=C2\N=C3CN=C(c4ccccc4)c4cc(Cl)ccc4N3C2=O)CC1`?
**A.** ED50 [1]: 1.5 mg/kg; ED50 [2]: 20.5 mg/kg; ED50 [3]: 2 mg/kg; ED50 [4]: 24 mg/kg; ED50 [5]: 44 mg/kg; ED50 [6]: > 50 mg/kg; ED50 [7]: 9 mg/kg; ED50 [8]: > 1000 mg/kg

**Q.** Which ED50 [1] does the source give for `C=CCN1CCN(/C=C2\N=C3CN=C(c4ccccc4)c4cc(Cl)ccc4N3C2=O)CC1` here?
**A.** 2.3 mg/kg

**Q.** What about the ED50 [2] of the same compound?
**A.** 13.5 mg/kg

**Q.** What about the ED50 [3] of the same compound?
**A.** 21 mg/kg

**Q.** What about the ED50 [4] of the same compound?
**A.** > 50 mg/kg

**Q.** What about the ED50 [5] of the same compound?
**A.** 25 mg/kg

**Q.** What about the ED50 [6] of the same compound?
**A.** 18 mg/kg

**Q.** What about the ED50 [7] of the same compound?
**A.** 13 mg/kg

**Q.** What about the ED50 [8] of the same compound?
**A.** > 1000 mg/kg

**Q.** What does the source list for `O=C1/C(=C/N2CCN(CC3CC3)CC2)N=C2CN=C(c3ccccc3)c3cc(Cl)ccc3N12`?
**A.** ED50 [1]: 4.65 mg/kg; ED50 [2]: 10.5 mg/kg; ED50 [3]: 3.5 mg/kg; ED50 [4]: 30 mg/kg; ED50 [5]: 30 mg/kg; ED50 [6]: 25 mg/kg; ED50 [7]: 6.2 mg/kg; ED50 [8]: > 1000 mg/kg

**Q.** What does the source list for `CC(C)N1CCN(/C=C2\N=C3CN=C(c4ccccc4)c4cc(Cl)ccc4N3C2=O)CC1`?
**A.** ED50 [1]: 2.1 mg/kg; ED50 [2]: 7 mg/kg; ED50 [3]: 1.25 mg/kg; ED50 [4]: 5.8 mg/kg; ED50 [5]: 6.6 mg/kg; ED50 [6]: 6.4 mg/kg; ED50 [7]: 12 mg/kg; ED50 [8]: > 1000 mg/kg

**Q.** What does the source list for `O=C1/C(=C/N2CCN(c3ccccc3)CC2)N=C2CN=C(c3ccccc3)c3cc(Cl)ccc3N12`?
**A.** ED50 [1]: > 50 mg/kg; ED50 [2]: > 50 mg/kg; ED50 [3]: 26 mg/kg; ED50 [4]: > 50 mg/kg; ED50 [5]: > 50 mg/kg; ED50 [6]: > 50 mg/kg; ED50 [7]: > 50 mg/kg; ED50 [8]: > 1000 mg/kg

**Q.** How did the ED50 [1] turn out when `O=C1/C(=C/N2CCSCC2)N=C2CN=C(c3ccccc3)c3cc(Cl)ccc3N12` was run?
**A.** > 20 mg/kg

**Q.** What about the ED50 [2] of the same compound?
**A.** > 50 mg/kg

**Q.** And the ED50 [3]?
**A.** > 50 mg/kg

**Q.** And the ED50 [4]?
**A.** > 50 mg/kg

**Q.** And the ED50 [5]?
**A.** > 50 mg/kg

**Q.** What about the ED50 [6] of the same compound?
**A.** > 50 mg/kg

**Q.** And the ED50 [7]?
**A.** > 50 mg/kg

**Q.** What about the ED50 [8] of the same compound?
**A.** > 1000 mg/kg
